The source of these data is ChEMBL document CHEMBL5634123, “Design and synthesis of 1H-benzo[d]imidazole selective HDAC6 inhibitors with potential therapy for multiple myeloma” (Eur J Med Chem, 2023).

pIC50: −log10 of the molar value.

Experiment [1] deals with T1, Protein deacetylase HDAC6 (Homo sapiens, UniProt Q9UBN7).
T1 sequence (Q9UBN7 whole entry): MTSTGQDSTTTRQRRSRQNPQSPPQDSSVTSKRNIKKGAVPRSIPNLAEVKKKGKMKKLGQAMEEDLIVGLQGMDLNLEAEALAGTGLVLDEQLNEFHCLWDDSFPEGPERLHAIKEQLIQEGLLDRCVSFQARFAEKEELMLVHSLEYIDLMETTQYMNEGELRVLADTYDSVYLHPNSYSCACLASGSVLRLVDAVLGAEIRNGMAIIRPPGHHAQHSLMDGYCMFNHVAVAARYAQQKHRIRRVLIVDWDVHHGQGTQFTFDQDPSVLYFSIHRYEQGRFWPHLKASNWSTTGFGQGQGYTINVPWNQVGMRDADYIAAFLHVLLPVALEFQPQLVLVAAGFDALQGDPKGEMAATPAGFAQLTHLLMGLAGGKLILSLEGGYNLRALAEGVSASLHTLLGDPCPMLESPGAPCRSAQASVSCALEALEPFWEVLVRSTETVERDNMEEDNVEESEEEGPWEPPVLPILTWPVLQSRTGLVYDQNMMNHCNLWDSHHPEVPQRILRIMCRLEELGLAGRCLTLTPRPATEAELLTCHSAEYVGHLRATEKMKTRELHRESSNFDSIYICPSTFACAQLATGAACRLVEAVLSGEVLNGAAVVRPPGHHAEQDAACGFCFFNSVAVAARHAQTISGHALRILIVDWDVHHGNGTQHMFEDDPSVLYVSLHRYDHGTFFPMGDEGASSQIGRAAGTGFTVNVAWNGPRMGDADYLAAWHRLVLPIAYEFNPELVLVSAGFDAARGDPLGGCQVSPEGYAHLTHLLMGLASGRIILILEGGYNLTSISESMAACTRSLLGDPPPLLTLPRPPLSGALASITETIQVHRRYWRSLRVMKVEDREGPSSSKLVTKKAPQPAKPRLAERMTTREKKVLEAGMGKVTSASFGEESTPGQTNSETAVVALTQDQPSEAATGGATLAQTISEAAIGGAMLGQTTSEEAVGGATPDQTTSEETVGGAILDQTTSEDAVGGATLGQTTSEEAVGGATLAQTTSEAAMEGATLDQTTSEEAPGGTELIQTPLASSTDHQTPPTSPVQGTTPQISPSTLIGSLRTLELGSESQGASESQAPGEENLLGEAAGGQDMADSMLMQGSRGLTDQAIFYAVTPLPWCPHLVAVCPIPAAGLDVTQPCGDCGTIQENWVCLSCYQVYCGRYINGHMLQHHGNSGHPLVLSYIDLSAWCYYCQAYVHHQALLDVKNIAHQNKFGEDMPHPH
Nature of the experiment: Inhibition of HDAC6 (unknown origin) preincubated for 10 mins followed by substrate addition measured for 1 hr by fluorescence based assay.

The test system of the next experiment is HCT-116. Nature of the experiment: Cytotoxicity against human HCT-116 cells assessed as inhibition of cell viability incubated for 24 hrs by CCK8 assay. Particulars: HCT-116, 24 h. The format is functional, cell-based. For orientation: Formazan colour is commonly taken as a measure of viable cells.
The test system of the next experiment is RPMI-8226. Nature of the experiment: cells. Particulars: Homo sapiens, RPMI-8226, 24 h.
In another experiment the test system is SGC-7901. Put plainly: Cytotoxicity against human SGC-7901 cells assessed as inhibition of cell viability incubated for 24 hrs by CCK8 assay. The format is functional, cell-based. The settings on record: SGC-7901, 24 h.
For another experiment, the system named is MDA-MB-468. Nature of the experiment: cells. The settings on record: Homo sapiens, MDA-MB-468, 24 h.
A further experiment deals with HCCLM3. Nature of the experiment: Cytotoxicity against human HCCLM3 cells assessed as inhibition of cell viability incubated for 24 hrs by CCK8 assay. The settings on record: HCCLM3, 24 h. The format is functional, cell-based.
A further experiment addresses Histone deacetylase 1 (Homo sapiens, UniProt Q13547). Put plainly: Inhibition of HDAC1 (unknown origin) preincubated for 10 mins followed by substrate addition measured for 1 hr by fluorescence based assay.
In experiment [2] the target is T2, Protein deacetylase HDAC6 (Homo sapiens) (UniProt Q9UBN7).
T2 sequence (whole entry): T1 sequence (Q9UBN7 whole entry)
Put plainly: Inhibition of HDAC6 (unknown origin) at 1 uM preincubated for 10 mins followed by substrate addition measured for 1 hr by fluorescence based assay relative to control. Particulars: time 70.0 min.

Histone deacetylase 1, sequence (Q13547 whole entry): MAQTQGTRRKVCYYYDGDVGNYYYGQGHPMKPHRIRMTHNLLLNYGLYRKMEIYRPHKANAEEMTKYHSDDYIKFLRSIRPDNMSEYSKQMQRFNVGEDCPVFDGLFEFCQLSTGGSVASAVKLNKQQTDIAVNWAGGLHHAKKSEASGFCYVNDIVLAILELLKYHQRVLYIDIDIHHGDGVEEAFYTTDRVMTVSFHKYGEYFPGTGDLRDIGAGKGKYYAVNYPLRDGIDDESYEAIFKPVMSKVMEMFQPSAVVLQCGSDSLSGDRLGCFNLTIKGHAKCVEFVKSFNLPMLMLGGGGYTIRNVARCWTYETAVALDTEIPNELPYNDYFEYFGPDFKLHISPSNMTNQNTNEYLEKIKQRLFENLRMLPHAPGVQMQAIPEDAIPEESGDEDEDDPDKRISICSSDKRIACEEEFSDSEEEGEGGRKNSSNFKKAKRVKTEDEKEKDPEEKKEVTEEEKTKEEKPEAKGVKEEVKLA

The term pIC50 denotes −log10 of the IC50, conventionally taken in molar units. As for `Cn1c(CSc2ccccc2)nc2cc(C(=O)NO)ccc21`, in experiment [1], the pIC50 was 7.55.
The same measure, in the same setting: the same measure for `Cc1ccc(NCc2nc3cc(C(=O)NO)ccc3n2C)cc1`: 7.71.
Still for that read-out and setting: then `CCn1c(CNc2ccccc2)nc2cc(C(=O)NO)ccc21`, with 6.07.
Regarding `Cc1ccccc1NCc1nc2cc(C(=O)NO)ccc2n1C`, the pIC50 in the experiment with HCT-116 was 5.20; in the experiment on RPMI-8226, 5.66; with SGC-7901, 4.96; with MDA-MB-468, 5.26; in the experiment with HCCLM3, 4.82; in experiment [1], 7.80.
With `CCCCN(Cc1nc2cc(C(=O)NO)ccc2n1C)c1cccc(F)c1`, the pIC50 was 5.45 in the experiment with HCT-116; 5.88 in the experiment on RPMI-8226; 5.18 in the experiment on SGC-7901; 4.98 in the experiment with MDA-MB-468; 5.35 with HCCLM3; 7.89 in experiment [1].
On to `Cc1cccc(NCc2nc3cc(C(=O)NO)ccc3n2C)c1`, for which the pIC50 is 4.80 with HCT-116; 5.79 in the experiment with RPMI-8226; 4.55 in the experiment with SGC-7901; under 4.30 in the experiment on MDA-MB-468; under 4.30 in the experiment with HCCLM3; 7.93 in experiment [1].
With `Cn1c(CNc2ccccc2F)nc2cc(C(=O)NO)ccc21`, the pIC50 in the experiment with HCT-116 is under 4.30; with RPMI-8226 it was 5.61; in the experiment on SGC-7901, 5.24; in the experiment with MDA-MB-468, 5.07; in the experiment with HCCLM3 it was 4.84; in experiment [1] it was 7.86.
In the case of `CCCCN(Cc1nc2cc(C(=O)NO)ccc2n1C)c1ccccc1`, the pIC50 was 5.51 in the experiment on HCT-116; 6.03 with RPMI-8226; 5.55 with SGC-7901; 6.20 against Histone deacetylase 1; 5.09 with MDA-MB-468; 5.46 in the experiment with HCCLM3. Besides, the pIC50 in experiment [1] was 8.02.
As to `Cn1c(COc2ccccc2)nc2cc(C(=O)NO)ccc21`, the pIC50 was 5.65 in the experiment with HCT-116; 5.60 in the experiment with RPMI-8226; 5.01 with SGC-7901; 5.10 in the experiment with MDA-MB-468; 5.06 in the experiment on HCCLM3; 7.90 in experiment [1].
Usually inhibition stands for the change of the read-out against control, counted positive when it falls. High values mean a response far below the control, low ones a response near the control. Compound `O=C(NO)c1ccc2c(c1)ncn2CCc1ccccc1` gave an inhibition in experiment [2] of 70.3%.
Turning to `Cn1c(CNc2ccc(F)cc2)nc2cc(C(=O)NO)ccc21`, in experiment [1], the pIC50 was 7.74.
The same measure, in the same setting: then `Cn1c(CN2CCCCC2)nc2cc(C(=O)NO)ccc21`, with 7.47.
For the compound `Cn1c(CNc2ccccc2)nc2ccc(C(=O)NO)cc21`, in experiment [2], the inhibition was determined as 64.1%.
With `Cn1c(CNc2ccccc2)nc2cc(C(=O)NO)ccc21`, the pIC50 with HCT-116 was 4.76; with RPMI-8226, 5.69; in the experiment on SGC-7901 it was under 4.30; with MDA-MB-468, 5.02; in the experiment on HCCLM3, 4.38; in experiment [1] it was 7.80.
On to `CCN(Cc1nc2cc(C(=O)NO)ccc2n1C)c1ccccc1`, for which the pIC50 in the experiment on HCT-116 was 6.30; with RPMI-8226, 5.86; in the experiment on SGC-7901 it was 5.38; in the experiment with MDA-MB-468, under 4.30; in the experiment with HCCLM3, 5.35; in experiment [1], 7.99.
With `O=C(NO)c1ccc2c(c1)nc(CNc1ccccc1)n2C1CC1`, the pIC50 in experiment [1] is 6.05.
On to `Cn1c(CNc2cccc3ccccc23)nc2cc(C(=O)NO)ccc21`, for which the pIC50 in the experiment with HCT-116 was 5.03; in the experiment on RPMI-8226, 6.49; in the experiment with SGC-7901, 6.29; on Histone deacetylase 1 it was 6.08; in the experiment on MDA-MB-468, 5.17; in the experiment on HCCLM3, 6.11. Also, the pIC50 in experiment [1] was 8.23.
With `CCCN(Cc1nc2cc(C(=O)NO)ccc2n1C)c1ccccc1`, the negative-log IC50 (pIC50) with HCT-116 was 5.69; in the experiment with RPMI-8226, 5.62; with SGC-7901 it was 5.06; in the experiment on MDA-MB-468, under 4.30; in the experiment with HCCLM3, 5.32; in experiment [1] it was 7.89.
Regarding `C[C@H](NCc1ccccc1)c1nc2cc(C(=O)NO)ccc2n1C`, the pIC50 with HCT-116 is 5.19; in the experiment with RPMI-8226, 5.98; in the experiment with SGC-7901, 5.62; in the experiment with MDA-MB-468 it was 5.04; in the experiment with HCCLM3 it was 5.62; in experiment [1] it was 8.04.
In experiment [1], `Cn1c(CN2CCC3(CC2)OCCO3)nc2cc(C(=O)NO)ccc21` gave a pIC50 of 7.44.
Turning to `Cn1c(CNc2cccc(F)c2)nc2cc(C(=O)NO)ccc21`, the pIC50 with HCT-116 is 5.84; with RPMI-8226 it was 5.73; in the experiment with SGC-7901 it was 4.87; in the experiment with MDA-MB-468 it was 5.42; in the experiment on HCCLM3, 5.29; in experiment [1], 8.17.
The compound `CC(C)n1c(CNc2ccccc2)nc2cc(C(=O)NO)ccc21` showed a pIC50 in experiment [1] of 5.82.
Consider `CN(Cc1nc2cc(C(=O)NO)ccc2n1C)c1ccccc1`, for which the pIC50 in the experiment on HCT-116 was 5.00; in the experiment with RPMI-8226 it was 6.18; with SGC-7901, 5.43; against Histone deacetylase 1, 6.25; in the experiment on MDA-MB-468, 5.31; in the experiment with HCCLM3, 5.17. In experiment [1], this compound showed a pIC50 of 8.05.
In the case of `O=C(NO)c1ccc2ncn(CCc3ccccc3)c2c1`, the inhibition in experiment [2] amounted to 23.4%.
In turn, `O=C(NO)c1ccc2nc(CCc3ccccc3)[nH]c2c1` showed a pIC50 in experiment [1] of 7.16.
On to `Cn1c([C@H](Cc2ccccc2)NCc2ccccc2)nc2cc(C(=O)NO)ccc21`, for which the pIC50 was 5.26 in the experiment with HCT-116; 5.69 with RPMI-8226; 4.39 with SGC-7901; 4.36 in the experiment with MDA-MB-468; under 4.30 in the experiment with HCCLM3; 8.12 in experiment [1].
With `Cn1c(CNCc2ccccc2)nc2cc(C(=O)NO)ccc21`, the pIC50 was 5.88 in the experiment on HCT-116; 6.46 with RPMI-8226; 5.29 with SGC-7901; 6.01 on Histone deacetylase 1; 4.97 in the experiment on MDA-MB-468; 5.58 in the experiment on HCCLM3. In experiment [1], this compound had a pIC50 of 7.84.
With `C[C@@H](NCc1ccccc1)c1nc2cc(C(=O)NO)ccc2n1C`, the pIC50 is 6.29 with HCT-116; 6.15 with RPMI-8226; 5.78 with SGC-7901; 6.08 on Histone deacetylase 1; 5.22 with MDA-MB-468; 5.84 with HCCLM3. For the same compound, the pIC50 in experiment [1] is 8.23.
Consider `O=C(NO)c1ccc2nc[nH]c2c1`, for which the pIC50 on Histone deacetylase 1 is under 5.00; in experiment [1], 5.36.
